In assay [1] the target is GDP-bound NRAS wild-type protein (Homo sapiens, UniProt P01111). The assay can be described thus: Binding to NRAS by surface plasmon resonance (SPR), KD and KD ratio to KRAS. The conditions noted are these: ratio of the KD value with respect to GDP-bound NRAS wild-type protein to the KD value with respect to KRAS. The essentials:
(§1)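 Running buffer contained 10 µM GDP and 10 mM MgCl2 to keep RAS in the GDP state, with 4% DMSO at pH 7.4. Compounds were flowed at 100 µL/min in 75 s steps of rising concentration over captured biotin-Avi RAS at 30°C. Sensorgrams were fitted 1:1 for KD.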
(In general: Surface plasmon resonance follows binding to a sensor surface in real time, without labels.)

The target in the next assay is HRAS wild-type protein (Homo sapiens, UniProt P01112). The assay can be described thus: Binding to HRAS by surface plasmon resonance (SPR), KD and KD ratio to KRAS. The conditions noted are these: ratio of the KD value with respect to HRAS wild-type protein to the KD value with respect to KRAS. The essentials:
as §1

The subject of assay [2] is human lung cancer strain NCI-H441. The assay is classed as cell-based. The essentials: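 Step one: dispense the test compound in serial DMSO dilutions. Step three: add the reagent and measure […].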

GDP-bound NRAS wild-type protein, sequence (P01111 whole entry): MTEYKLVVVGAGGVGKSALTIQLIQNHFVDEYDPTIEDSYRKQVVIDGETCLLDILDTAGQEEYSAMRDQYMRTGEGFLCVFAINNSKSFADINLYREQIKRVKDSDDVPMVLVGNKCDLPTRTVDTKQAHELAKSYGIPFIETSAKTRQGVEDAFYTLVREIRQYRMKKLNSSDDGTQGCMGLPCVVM
HRAS wild-type protein, sequence (P01112 whole entry): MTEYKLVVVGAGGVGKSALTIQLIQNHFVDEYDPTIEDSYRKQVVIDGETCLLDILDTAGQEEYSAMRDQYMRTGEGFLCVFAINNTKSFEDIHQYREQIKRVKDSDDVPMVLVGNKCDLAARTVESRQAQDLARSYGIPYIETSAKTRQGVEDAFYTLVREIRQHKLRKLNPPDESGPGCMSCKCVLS

`CC[C@H](C)[C@@H]1NC(=O)[C@H](CC(C)C)N(C)C(=O)C[C@@H](C(=O)N2CCOCC2)N(C)C(=O)[C@H](C2CCCC2)N(C)C(=O)C2(CC(F)(F)C2)NC(=O)[C@@H]2CCCN2C(=O)[C@H](CCc2cc(F)c(C(F)(F)F)c(F)c2)NC(=O)CN(C)C(=O)[C@H](Cc2ccc(C(F)(F)F)cc2)N2CCCC[C@@H](C2=O)N(C)C(=O)CN(C)C1=O` [PP0562]: the “NRAS /KRAS” value in assay [1] was “B (a compound having 3 or more and less than 10 is denoted as B)”. Also, the “HRAS /KRAS” value on HRAS wild-type protein was “B (a compound having 3 or more and less than 10 is denoted as B)”. In addition, the IC50 (in general, the concentration that gives 50% inhibition) in assay [2] turned out to be 4.4 nM.
In the case of `CC[C@H](C)[C@@H]1NC(=O)[C@H](CC(C)C)N(C)C(=O)C[C@@H](C(=O)N2CCOCC2)N(C)C(=O)[C@H](C2CCCC2)N(C)C(=O)C2(COC2)NC(=O)[C@@H]2CCCN2C(=O)[C@H](CCc2cc(F)c(C(F)(F)F)c(F)c2)NC(=O)CN(C)C(=O)[C@H](Cc2ccc(C(F)(F)F)cc2)N2CCCC[C@@H](C2=O)N(C)C(=O)CN(C)C1=O` [PP0563], the “NRAS /KRAS” value in assay [1] is “B (a compound having 3 or more and less than 10 is denoted as B)”. Moreover, at HRAS wild-type protein, the “HRAS /KRAS” value was “B (a compound having 3 or more and less than 10 is denoted as B)”. Moreover, inhibition in assay [2] was half-maximal at 29 nM (IC50).
`CC[C@H](C)[C@@H]1NC(=O)[C@H](CC(C)C)N(C)C(=O)C[C@@H](C(=O)N2CCOCC2)N(C)C(=O)[C@H](C2CCCC2)N(C)C(=O)C2(CCOCC2)NC(=O)[C@@H]2CCCN2C(=O)[C@H](CCc2cc(F)c(C(F)(F)F)c(F)c2)NC(=O)CN(C)C(=O)[C@H](Cc2ccc(C(F)(F)F)cc2)N2CCCC[C@@H](C2=O)N(C)C(=O)CN(C)C1=O` [PP0564]: the “NRAS /KRAS” value in assay [1] is “B (a compound having 3 or more and less than 10 is denoted as B)”. Further, the “HRAS /KRAS” value at HRAS wild-type protein is “B (a compound having 3 or more and less than 10 is denoted as B)”. Also, in assay [2], the IC50 was determined as 18.4 nM.
`CC[C@H](C)[C@@H]1NC(=O)[C@H](CC(C)C)N(C)C(=O)C[C@@H](C(=O)N2CCOCC2)N(C)C(=O)[C@H](C2CCCC2)N(C)C(=O)C(C)(C)NC(=O)[C@@H]2CCCN2C(=O)[C@H](CCc2cc(F)c(C(F)(F)F)c(F)c2)NC(=O)CN(C)C(=O)[C@H](Cc2ccc(C(F)(F)F)cc2)N2CCCC[C@@H](C2=O)N(C)C(=O)CN(C)C1=O` [PP0565]: the “NRAS /KRAS” value in assay [1] is “C (A compound having a KD ratio of 0.1 or more and less than 3 is denoted as C)”. Also, the “HRAS /KRAS” value on HRAS wild-type protein was “B (a compound having 3 or more and less than 10 is denoted as B)”. This compound also had an IC50 in assay [2] of 11.5 nM.
`CC[C@H](C)[C@@H]1NC(=O)[C@H](CC(C)C)N(C)C(=O)C[C@@H](C(=O)N2CCOCC2)N(C)C(=O)[C@H](C2CCC2)N(C)C(=O)C2(CCCC2)NC(=O)[C@@H]2CCCN2C(=O)[C@H](CCc2cc(F)c(C(F)(F)F)c(F)c2)NC(=O)CN(C)C(=O)[C@H](Cc2ccc(C(F)(F)F)cc2)N2CCCC[C@@H](C2=O)N(C)C(=O)CN(C)C1=O` [PP0566]: in assay [1], the “NRAS /KRAS” value is “B (a compound having 3 or more and less than 10 is denoted as B)”. At HRAS wild-type protein, the “HRAS /KRAS” value was “B (a compound having 3 or more and less than 10 is denoted as B)”. In assay [2], half-maximal inhibition (IC50) required 18.4 nM.
In the case of `CC[C@H](C)[C@@H]1NC(=O)[C@H](CC(C)C)N(C)C(=O)C[C@@H](C(=O)N2CCOCC2)N(C)C(=O)[C@H](C2CCCCC2)N(C)C(=O)C2(CCCC2)NC(=O)[C@@H]2CCCN2C(=O)[C@H](CCc2cc(F)c(C(F)(F)F)c(F)c2)NC(=O)CN(C)C(=O)[C@H](Cc2ccc(C(F)(F)F)cc2)N2CCCC[C@@H](C2=O)N(C)C(=O)CN(C)C1=O` [PP0567], the “NRAS /KRAS” value in assay [1] was “B (a compound having 3 or more and less than 10 is denoted as B)”. Also, the “HRAS /KRAS” value on HRAS wild-type protein is “B (a compound having 3 or more and less than 10 is denoted as B)”. This compound came in with an IC50 in assay [2] of 8.3 nM.
Consider `CC[C@H](C)[C@@H]1NC(=O)[C@H](CC(C)C)N(C)C(=O)C[C@@H](C(=O)N2CCOCC2)N(C)C(=O)[C@H](CC(F)(F)F)N(C)C(=O)C2(CCCC2)NC(=O)[C@@H]2CCCN2C(=O)[C@H](CCc2cc(F)c(C(F)(F)F)c(F)c2)NC(=O)CN(C)C(=O)[C@H](Cc2ccc(C(F)(F)F)cc2)N2CCCC[C@@H](C2=O)N(C)C(=O)CN(C)C1=O` [PP0568], for which the “NRAS /KRAS” value in assay [1] is “B (a compound having 3 or more and less than 10 is denoted as B)”. On HRAS wild-type protein, the “HRAS /KRAS” value is “B (a compound having 3 or more and less than 10 is denoted as B)”. In assay [2], this compound had an IC50 of 79.5 nM.
Consider `CC[C@H](C)[C@@H]1NC(=O)[C@H](CC(C)C)N(C)C(=O)C[C@@H](C(=O)N(C)C)N(C)C(=O)[C@H](C2CCCC2)N(C)C(=O)C2(CCCC2)NC(=O)[C@@H]2CCCN2C(=O)[C@H](CCc2cc(F)c(C(F)(F)F)c(F)c2)NC(=O)CN(C)C(=O)[C@H](Cc2ccc(C(F)(F)F)cc2)N2CCCC[C@@H](C2=O)N(C)C(=O)CN(C)C1=O` [PP0569], for which the “NRAS /KRAS” value in assay [1] is “C (A compound having a KD ratio of 0.1 or more and less than 3 is denoted as C)”. In addition, the “HRAS /KRAS” value on HRAS wild-type protein is “B (a compound having 3 or more and less than 10 is denoted as B)”. Moreover, half-maximal inhibition in assay [2] (IC50) was put at 2.8 nM.
As for `CC[C@H](C)[C@@H]1NC(=O)[C@H](CC(C)C)N(C)C(=O)C[C@@H](C(=O)N2CCC2)N(C)C(=O)[C@H](C2CCCC2)N(C)C(=O)C2(CCCC2)NC(=O)[C@@H]2CCCN2C(=O)[C@H](CCc2cc(F)c(C(F)(F)F)c(F)c2)NC(=O)CN(C)C(=O)[C@H](Cc2ccc(C(F)(F)F)cc2)N2CCCC[C@@H](C2=O)N(C)C(=O)CN(C)C1=O` [PP0570], the “NRAS /KRAS” value in assay [1] is “B (a compound having 3 or more and less than 10 is denoted as B)”. The “HRAS /KRAS” value on HRAS wild-type protein was “B (a compound having 3 or more and less than 10 is denoted as B)”. In assay [2], this compound yielded a half-maximal inhibitory concentration (IC50) of 7.5 nM.
For `CC[C@H](C)[C@@H]1NC(=O)[C@H](CC(C)C)N(C)C(=O)C[C@@H](C(=O)N2CCCC2)N(C)C(=O)[C@H](C2CCCC2)N(C)C(=O)C2(CCCC2)NC(=O)[C@@H]2CCCN2C(=O)[C@H](CCc2cc(F)c(C(F)(F)F)c(F)c2)NC(=O)CN(C)C(=O)[C@H](Cc2ccc(C(F)(F)F)cc2)N2CCCC[C@@H](C2=O)N(C)C(=O)CN(C)C1=O` [PP0571], the “NRAS /KRAS” value in assay [1] was “B (a compound having 3 or more and less than 10 is denoted as B)”. Moreover, the “HRAS /KRAS” value on HRAS wild-type protein was “B (a compound having 3 or more and less than 10 is denoted as B)”. In assay [2], this compound showed a half-inhibitory concentration (IC50) of 5.4 nM.
For the compound `CC[C@H](C)[C@@H]1NC(=O)[C@H](CC(C)C)N(C)C(=O)C[C@@H](C(=O)N2CCCCC2)N(C)C(=O)[C@H](C2CCCC2)N(C)C(=O)C2(CCCC2)NC(=O)[C@@H]2CCCN2C(=O)[C@H](CCc2cc(F)c(C(F)(F)F)c(F)c2)NC(=O)CN(C)C(=O)[C@H](Cc2ccc(C(F)(F)F)cc2)N2CCCC[C@@H](C2=O)N(C)C(=O)CN(C)C1=O` [PP0572], the “NRAS /KRAS” value in assay [1] was “B (a compound having 3 or more and less than 10 is denoted as B)”. For the same compound, on HRAS wild-type protein, the “HRAS /KRAS” value is “B (a compound having 3 or more and less than 10 is denoted as B)”. In assay [2], this compound yielded an IC50 of 9 nM.
As for `CC[C@H](C)[C@@H]1NC(=O)[C@H](CC(C)C)N(C)C(=O)C[C@@H](C(=O)N(C)C)N(C)C(=O)[C@H](C2CCCC2)N(C)C(=O)C2(CCC2)NC(=O)[C@@H]2CCCN2C(=O)[C@H](CCc2cc(F)c(C(F)(F)F)c(F)c2)NC(=O)CN(C)C(=O)[C@H](Cc2ccc(C(F)(F)F)cc2)N2CCCC[C@@H](C2=O)N(C)C(=O)CN(C)C1=O` [PP0574], the “NRAS /KRAS” value in assay [1] is “C (A compound having a KD ratio of 0.1 or more and less than 3 is denoted as C)”. Further, the “HRAS /KRAS” value on HRAS wild-type protein was “B (a compound having 3 or more and less than 10 is denoted as B)”. In addition, the concentration for half-maximal inhibition (IC50) in assay [2] was determined as 3.1 nM.
On to `CC[C@H](C)[C@@H]1NC(=O)[C@H](CC(C)C)N(C)C(=O)C[C@@H](C(=O)N2CCOCC2)N(C)C(=O)[C@H](C2CCCC2)N(C)C(=O)C2(CCC2)NC(=O)[C@@H]2CC(F)(F)CN2C(=O)[C@H](CCc2cc(F)c(C(F)(F)F)c(F)c2)NC(=O)CN(C)C(=O)[C@H](Cc2ccc(C(F)(F)F)cc2)N2CCCC[C@@H](C2=O)N(C)C(=O)CN(C)C1=O` [PP0575], for which the “NRAS /KRAS” value in assay [1] was “B (a compound having 3 or more and less than 10 is denoted as B)”. In addition, at HRAS wild-type protein, the “HRAS /KRAS” value was “B (a compound having 3 or more and less than 10 is denoted as B)”. In addition, the half-inhibitory concentration (IC50) in assay [2] came out at 3.2 nM.
In the case of `CC[C@H](C)[C@@H]1NC(=O)[C@H](CC(C)C)N(C)C(=O)C[C@@H](C(=O)N(C)C)N(C)C(=O)[C@H](C2CCCC2)N(C)C(=O)C2(CCCC2)NC(=O)[C@@H]2CC(F)(F)CN2C(=O)[C@H](CCc2cc(F)c(C(F)(F)F)c(F)c2)NC(=O)CN(C)C(=O)[C@H](Cc2ccc(C(F)(F)F)cc2)N2CCCC[C@@H](C2=O)N(C)C(=O)CN(C)C1=O` [PP0576], the “NRAS /KRAS” value in assay [1] is “C (A compound having a KD ratio of 0.1 or more and less than 3 is denoted as C)”. Moreover, the “HRAS /KRAS” value on HRAS wild-type protein was “B (a compound having 3 or more and less than 10 is denoted as B)”. This compound had a half-maximal inhibitory concentration (IC50) in assay [2] of 2.4 nM.
As for `CC[C@H](C)[C@@H]1NC(=O)[C@H](CC(C)C)N(C)C(=O)C[C@@H](C(=O)N(C)C)N(C)C(=O)[C@H](C2CCCC2)N(C)C(=O)C2(CCC2)NC(=O)[C@@H]2CC(F)(F)CN2C(=O)[C@H](CCc2cc(F)c(C(F)(F)F)c(F)c2)NC(=O)CN(C)C(=O)[C@H](Cc2ccc(C(F)(F)F)cc2)N2CCCC[C@@H](C2=O)N(C)C(=O)CN(C)C1=O` [PP0577], the “NRAS /KRAS” value in assay [1] was “C (A compound having a KD ratio of 0.1 or more and less than 3 is denoted as C)”. Further, the “HRAS /KRAS” value at HRAS wild-type protein was “C (A compound having a KD ratio of 0.1 or more and less than 3 is denoted as C)”. The IC50 in assay [2] was found to be 2.4 nM.
